Experimental data from patent publication US20050031652A1, “Compositions and methods comprising memantine and polyanionic polymers” (priority 2003, published 2005).
Counter-ions that a name gives are not always drawn.

Assays:
[1] = system: Rabbits; assay: Five day toxicology study, topical dosing twice a day; assay type: in vivo, rabbit; conditions: CMC based versus borate buffered formulations
Protocol: This study was followed up by a five day toxicology study which included borate buffered formulations ranging from 0.1 to 0.75% (w/v) memantine, CMC based formulations ranging from 0.1 to 1.0% (w/v) memantine and the relevant placebos. All formulations were preserved with 20 ppm BAK.
The formulations were dosed with 35 μL drops topically to the cul-de-sac of rabbits twice a day for […]. The rabbits were evaluated by gross clinical observation of irritation, ranked as none, slight, mild, moderate or severe. The irritation score was a sum of lacrimation, chemosis, hyperemia and tolerability all scored from none to severe.

[2] = in vivo; conditions: rabbit, po, 2 mg/kg
Protocol: Tissue concentrations of memantine were determined after oral and topical dosing. Rabbits were dosed topically with 35 μl of a 0.1% (w/v) aqueous solution of radiolabeled memantine twice a day to both eyes for 7 days (equivalent to approximately 0.07 mg/kg/day). This composition is detailed in Table 1 as Composition 2. Another subset of rabbits was dosed orally with 2 mg/kg radiolabeled memantine for seven days. At the end of the dosing period ocular tissue concentrations were quantified.

[3] = Human oral clinical pharmacokinetic study; assay type: in vivo
Protocol: Assuming a 31% protein binding and a retina-choroid concentration equivalent to the free-unbound plasma memantine concentration, the peak retinal level of memantine would be 0.30 μM.

[4] = cited from earlier work
[5] = Autoradiography after topical ophthalmic instillation; assay type: in vivo, rabbit
Protocol: General disposition of topical ophthalmic 1-amino-3,5-dimethyladamantane hydrochloride (memantine) instillation was assessed by autoradiography. Briefly, albino and pigmented rabbits were dosed via topical ophthalmic instillation with a 0.74% (w/v) aqueous isotonic memantine solution having a pH of 7.4. After dosing, autoradiographic sections of the eye were acquired at 0.25, 0.5, 1, and 2 and 24 hours post dosing.

[6] = Retina levels after topical versus oral dosing over seven days (Example 9); conditions: albino, rabbit, in vivo, 1.76 mg/kg/day
Protocol: Once a day topical dosing of 0.37% memantine HCl (w/v) borate buffered solution (0.242 mg/kg/day), was compared to daily oral dosing of memantine HCL, 1.76 mg/kg/day, in albino rabbits over seven days. […] Peak levels obtained by topical dosing far exceeded levels thought to be possible by oral dosing. […] Thus, topical dosing of this formulation is […].

[7] = assumed for the calculation; cited from earlier work

Question: What does the source list for `CC12CC3CC(C)(C1)CC(N)(C3)C2` [memantine, 1-amino-3,5-dimethyladamantane hydrochloride]?
Answer: improvement of tolerability, factor [1]: 5-8; concentration at 7 days [2]: 107 ng/mL; peak retinal level (calculated) ([3]; oral 20 mg per day, assuming 31% protein binding and retina-choroid equal to free plasma concentration): 0.30 µM; mean plasma concentration ([3]; oral dose of 20 mg per day): 95 ng/mL; dose limiting side effects ([4]; oral delivery): dizziness, lightheadedness and slurred speech; other adverse events associated with CNS excitation ([4]; oral dosages of 5 to 30 mg/day): anxiety, dissociation, dry mouth, headache, nervousness, slurred speech, tiredness and weakness; half-life in the posterior globe (qualitative) ([5]; albino and pigmented rabbits, topical 0.74% (w/v) solution): relatively long; binding to ocular melanin ([5]; pigmented tissues, autoradiography intensity): binds to the ocular melanin; presence in posterior ocular tissues ([5]; topical 0.74% (w/v) aqueous isotonic solution pH 7.4, albino and pigmented rabbits): present in the posterior sclera, choroid and/or retina; concentration at 7 days [6]: 100 ng/mL; protein binding [7]: 31%
